# Where “and” joins values, the source holds several entries; their conditions need not be identical. Equal entries are not always repeated. Bridge positions count the residues as written; N and C are the ends. Square brackets hold non-standard residues; d marks the D form. Triazole bridges read from a SMILES are 1,4-linked. Peptide text beside a SMILES is read from it. Orn(N3) = [N-]=[N+]=NCCC[C@H](N)C(=O)O; Cit = NC(=O)NCCC[C@H](N)C(=O)O; Pra = C#CC[C@H](N)C(=O)O
# Key:
# α9α10 nAChR = settings: cited from earlier work
# [1] = rat, in vivo, 1 mg/kg, 1 h
# rat α9α10 nAChR = rat α9α10 nAChR (Rattus norvegicus, UniProt P43144+Q9JLB5); experiment: cell-based; assay type: cell-based; settings: for IC50: α9α10 nAChR IC50 (nM) Rat
# Sequence of rat α9α10 nAChR (P43144 26-479 limits assumed): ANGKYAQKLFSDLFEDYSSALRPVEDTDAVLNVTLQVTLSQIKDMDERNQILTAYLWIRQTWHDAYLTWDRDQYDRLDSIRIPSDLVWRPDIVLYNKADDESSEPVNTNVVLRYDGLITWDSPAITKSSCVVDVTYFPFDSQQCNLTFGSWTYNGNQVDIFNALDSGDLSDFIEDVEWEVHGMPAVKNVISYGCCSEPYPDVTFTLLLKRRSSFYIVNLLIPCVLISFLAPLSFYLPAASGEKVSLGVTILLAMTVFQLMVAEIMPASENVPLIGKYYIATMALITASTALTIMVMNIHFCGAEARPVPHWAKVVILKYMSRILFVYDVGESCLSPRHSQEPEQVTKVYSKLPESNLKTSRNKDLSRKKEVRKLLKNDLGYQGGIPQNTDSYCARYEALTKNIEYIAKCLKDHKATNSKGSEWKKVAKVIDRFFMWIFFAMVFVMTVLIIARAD
# Sequence of rat α9α10 nAChR (Q9JLB5 25-447 limits assumed): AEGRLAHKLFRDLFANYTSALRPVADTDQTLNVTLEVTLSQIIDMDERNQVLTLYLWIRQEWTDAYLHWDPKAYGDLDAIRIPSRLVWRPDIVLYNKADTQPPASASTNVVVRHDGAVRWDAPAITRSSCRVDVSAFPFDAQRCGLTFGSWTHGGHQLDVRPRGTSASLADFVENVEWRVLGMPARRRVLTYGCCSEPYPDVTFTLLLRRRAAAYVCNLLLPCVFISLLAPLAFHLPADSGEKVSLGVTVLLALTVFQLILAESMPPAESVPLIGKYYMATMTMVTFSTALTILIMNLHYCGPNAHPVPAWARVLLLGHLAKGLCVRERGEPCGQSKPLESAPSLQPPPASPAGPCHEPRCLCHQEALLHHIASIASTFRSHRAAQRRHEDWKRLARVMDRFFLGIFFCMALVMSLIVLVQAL
# human α9α10 nAChR = human α9α10 nAChR (Homo sapiens, UniProt Q9GZZ6+Q9UGM1); experiment: cell-based; assay type: cell-based
# Sequence of human α9α10 nAChR (Q9UGM1 26-479 limits assumed): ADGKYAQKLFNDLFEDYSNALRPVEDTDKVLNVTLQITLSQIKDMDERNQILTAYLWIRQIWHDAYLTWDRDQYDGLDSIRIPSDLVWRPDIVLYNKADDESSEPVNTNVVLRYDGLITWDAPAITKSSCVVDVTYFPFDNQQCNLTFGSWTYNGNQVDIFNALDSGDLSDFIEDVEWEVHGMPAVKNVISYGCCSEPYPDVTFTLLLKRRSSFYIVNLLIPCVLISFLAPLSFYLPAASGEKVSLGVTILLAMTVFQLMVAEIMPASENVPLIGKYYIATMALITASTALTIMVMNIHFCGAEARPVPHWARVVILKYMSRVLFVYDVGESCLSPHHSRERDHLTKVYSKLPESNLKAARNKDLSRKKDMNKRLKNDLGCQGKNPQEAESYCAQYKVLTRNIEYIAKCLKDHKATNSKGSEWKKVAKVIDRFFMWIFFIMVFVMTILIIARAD
# Sequence of human α9α10 nAChR (Q9GZZ6 25-450 limits assumed): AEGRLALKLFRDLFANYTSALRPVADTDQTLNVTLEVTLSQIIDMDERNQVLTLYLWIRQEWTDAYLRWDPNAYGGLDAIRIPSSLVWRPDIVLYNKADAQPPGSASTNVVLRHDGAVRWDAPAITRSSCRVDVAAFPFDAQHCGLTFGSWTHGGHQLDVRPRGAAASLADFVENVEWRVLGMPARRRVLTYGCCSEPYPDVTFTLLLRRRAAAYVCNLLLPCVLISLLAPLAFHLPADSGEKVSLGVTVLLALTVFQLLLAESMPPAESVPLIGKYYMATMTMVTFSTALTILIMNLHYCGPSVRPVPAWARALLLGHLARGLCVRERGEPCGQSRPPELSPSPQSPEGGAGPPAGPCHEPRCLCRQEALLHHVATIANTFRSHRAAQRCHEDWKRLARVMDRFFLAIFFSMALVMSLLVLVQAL
# [2] = system: oxaliplatin-induced peripheral neuropathy; set-up: species or system Sprague Dawley rats; settings: in vivo
# [3] = system: 88 receptors, transporters, enzymes and kinases
# spared nerve injury = system: spared nerve injury; set-up: species or system rats; settings: rat, in vivo, 0.5 mg/kg
# α7 nAChR = α7 nAChR (Homo sapiens, UniProt P36544); settings: read-out: Partial inhibition of the α7 nAChR
# Sequence of α7 nAChR (P36544 23-502 limits assumed): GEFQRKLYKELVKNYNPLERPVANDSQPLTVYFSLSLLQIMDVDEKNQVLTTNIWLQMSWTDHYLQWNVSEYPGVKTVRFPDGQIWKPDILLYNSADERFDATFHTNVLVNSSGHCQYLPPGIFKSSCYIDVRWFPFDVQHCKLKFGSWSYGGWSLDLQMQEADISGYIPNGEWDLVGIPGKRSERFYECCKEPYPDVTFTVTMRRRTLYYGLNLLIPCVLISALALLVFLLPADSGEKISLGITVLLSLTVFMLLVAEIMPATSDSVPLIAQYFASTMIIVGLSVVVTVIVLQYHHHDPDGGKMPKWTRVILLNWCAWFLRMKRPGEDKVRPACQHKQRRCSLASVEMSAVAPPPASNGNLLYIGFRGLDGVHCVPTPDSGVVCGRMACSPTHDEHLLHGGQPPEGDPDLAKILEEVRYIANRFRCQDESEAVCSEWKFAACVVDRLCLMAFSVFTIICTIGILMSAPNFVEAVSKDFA
# in vivo = settings: male, Sprague Dawley, rat, sc, 1 mg/kg
# [4] = 24 h
smiles,measurement,setting,value
N=C(N)NCCC[C@H](NC(=O)[C@@H]1CSSC[C@@H]2NC(=O)[C@@H](NC(=O)CN)CSSC[C@H](NC(=O)[C@H](CCCNC(=N)N)NC(=O)[C@@H]3CCCN3C(=O)[C@H](CC(=O)O)NC(=O)[C@H](CO)NC2=O)C(=O)N[C@@H](CCCNC(=N)N)C(=O)N[C@@H](Cc2ccc(O)cc2)C(=O)N[C@@H](CCCNC(=N)N)C(=O)N1)C(=O)O [RgIA],Lower affinity for the human than the rat α9α10 nAChR,α9α10 nAChR,approximately 300 fold
"C[C@@H](O)[C@@H]1NC(=O)[C@@H]2CSSC[C@@H](C(=O)N[C@@H](Cc3ccc(O)cc3)C(N)=O)NC(=O)[C@H](CCC(N)=O)NC(=O)[C@H](Cc3ccc(O)c(I)c3)NC(=O)[C@H](CCCNC(N)=O)NC(=O)[C@H](CSSC[C@H](NC(=O)CN)C(=O)N2)NC(=O)[C@H](CCCNC(=N)N)NC(=O)[C@@H]2CCCN2C(=O)[C@H](CC(=O)O)NC1=O [CSP-4-NH2, reference compound]",Recovered peptide from blood remaining in the native form,[1],40-50%
same,Activity on the rat α9α10 nAChR (in words),rat α9α10 nAChR,active
same,IC50,rat α9α10 nAChR,0.4 ± 0.2 nM
same,Activity on the human α9α10 nAChR (in words),human α9α10 nAChR,active
same,Block of ACh-evoked currents,human α9α10 nAChR,> 99%
same,IC50,human α9α10 nAChR,3.5 ± 1.5 nM
same,"Percent of 100 μM acetylcholine-induced current remaining in the presence of compound, Mean ± SEM",human α9α10 nAChR,0.4 ± 0.11%
"C[C@@H](O)[C@@H]1NC(=O)[C@@H]2Cc3cn(nn3)CCC[C@@H](C(=O)N[C@@H](Cc3ccc(O)cc3)C(N)=O)NC(=O)[C@H](CCC(N)=O)NC(=O)[C@H](Cc3c[nH]c4ccccc34)NC(=O)[C@H](CCCNC(N)=O)NC(=O)[C@H](CSSC[C@H](NC(=O)CN)C(=O)N2)NC(=O)[C@H](CCCNC(=N)N)NC(=O)[C@@H]2CCCN2C(=O)[C@H](CC(=O)O)NC1=O [Ia′, L-tyrosinamide, glycyl-L-cysteinyl-L-alanyl-L-threonyl-L-α-aspartyl-L-prolyl-L-arginyl-L-cysteinyl-N5-(aminocarbonyl)-L-ornithyl-L-tryptophyl-L-glutaminyl-L-norvalyl-cyclic (2→8)-disulfide-cyclic 3^3,12^5-(1H-1,2,3-triazole-4,1-diyl)] (H-GC[Pra]TDPRC[Cit]WQ[Orn(N3)]Y-NH2; disulfide 2-8; triazole 3-12)",Duration of significant reduction in mechanical hyperalgesia compared to vehicle,"[2]; rat, 0.5 mg/kg",up to 24 h
same,Mechanical hyperalgesia versus vehicle (in words),"[2]; rat, sc, 0.5 mg/kg",statistically significant improvements in mechanical hyperalgesia
same,"Off-target effects in panel of 88 receptors, transporters, enzymes and kinases",[3],no off-target effects
same,Duration of significant reduction in mechanical hyperalgesia compared to vehicle,spared nerve injury,up to 24 h
same,Mechanical hyperalgesia versus vehicle (in words),spared nerve injury; sc,statistically significant improvement in mechanical hyperalgesia
same,IC50,rat α9α10 nAChR,12.6 nM and 7.7 nM
same,IC50,human α9α10 nAChR,26 ± 4 nM
same,inhibition at 10 µM,α7 nAChR,52%
"C[C@@H](O)[C@@H]1NC(=O)[C@@H]2Cc3cn(nn3)CCC[C@@H](C(=O)N[C@@H](Cc3ccc(O)cc3)C(=O)O)NC(=O)[C@H](CCC(N)=O)NC(=O)[C@H](Cc3c[nH]c4ccccc34)NC(=O)[C@H](CCCNC(N)=O)NC(=O)[C@H](CSSC[C@H](NC(=O)CN)C(=O)N2)NC(=O)[C@H](CCCNC(=N)N)NC(=O)[C@@H]2CCCN2C(=O)[C@H](CC(=O)O)NC1=O [Ia, L-tyrosine, glycyl-L-cysteinyl-L-alanyl-L-threonyl-L-α-aspartyl-L-prolyl-L-arginyl-L-cysteinyl-N5-(aminocarbonyl)-L-ornithyl-L-tryptophyl-L-glutaminyl-L-norvalyl-cyclic (2→8) disulfide-cyclic 3^3,12^5-(1H-1,2,3-triazole-4,1-diyl)] (H-GC[Pra]TDPRC[Cit]WQ[Orn(N3)]Y-OH; disulfide 2-8; triazole 3-12)",PD (Rat CIPN) Duration of PD effect,[2],4 to 24 h
same,PD (Rat CIPN) Required dose to reach max efficacy,[2],0.5 mg/kg
same,Duration of significant reduction in mechanical hyperalgesia compared to vehicle,"[2]; rat, 0.5 mg/kg",up to 4 h
same,AUC,in vivo,981 ng·h/mL
same,AUC(0-t),in vivo,981 ng·h/mL
same,Cmax,in vivo,648 ng/mL
same,Tmax,in vivo,15 min
same,half-life,in vivo,30 min
same,IC50,rat α9α10 nAChR,14.3 ± 1.8 nM
same,Disulfide rearrangement / stability in plasma and serum (in words),[4],"single isolated peak on reverse phase HPLC in rat plasma at 0 h, 8 h and 24 h"
same,IC50,human α9α10 nAChR,0.7 ± 0.03 nM

# — patent publication US11612661B2 (priority 2019, dated 2023)
